From patent publication US6583175B2, “Alkylxanthates and use of alkylxanthates in the integrated pest management” (Council of Scientific & Industrial Research, priority 2001, dated 2003)
Values after ≈ are worked out from the molar mass of the structure shown.

Columns and labels:
Spodoptera litura = test: Antifeedant activity against late third instar of Spodoptera litura (leaf disk, oral feeding); assay type: in vivo; settings: in vivo
[1] = system: Brine shrimp, Artemia salina; settings: in vivo
lice = settings: in vivo; cited from earlier work

C/C=C(\C)C(=O)O[C@H]1C[C@@H](OC(C)=O)[C@@]2(C(=O)OC)CO[C@H]3[C@@H](O)[C@@](C)([C@]45O[C@@]4(C)[C@H]4C[C@@H]5O[C@@H]5OC=C[C@@]54O)[C@H]4[C@]1(CO[C@]4(O)C(=O)OC)[C@@H]32 [Azadiractin, reference compound]
Concentration required for 50% leaf protection EC50 ± S.E. (Spodoptera litura): 6.34 ± 1.77 μg/cm^2

CC[C@@]1(O)C(=O)OCc2c1cc1n(c2=O)Cc2cc3ccccc3nc2-1 [Chamtothecin, reference compound]
LC50 ± S.E. [1]: 2.53 ± 0.43 µg/mL (≈ 7.26 µM)

S=C(OCc1ccccc1)SCCSC(=S)OCc1ccccc1 [Compound 5, Ethylene Bis(benzylxanthate)]
insecticidal activity against lice (lice): moderate insecticidal activity
